# Measured values as given in publication PMC10820135, “Pharmacokinetic, Tissue Distribution, Metabolite, and Toxicity Evaluation of the Matrine Derivative, (6aS, 10S, 11aR, 11bR, 11cS)-10-Methylaminododecahydro-3a, 7a-Diaza-benzo (de) Anthracene-8-thione” (Molecules, 2024).
# Entries after “also recorded” stand apart in the source; their conditions may differ.
# Tests used:
# [1] = Tissue distribution of MASM in rats; format: in vivo, Sprague-Dawley rats; details: rat
# Procedure: (§1) UHPLC analysis was performed using a Thermo Accela AS system, employing an ACQUITY UPLC®BEH C18 (Waters Corporation, Wexfords, Ireland) (1.7 µm, 2.1 × 100 mm) column and a binary solvent system consisting of water containing 0.1% formic acid as mobile phase A and acetonitrile as mobile phase B. For pharmacokinetic evaluation, the gradient elution was set as follows: 97% A from 0 to 2 min, 97–70% A from 2 to 3 min, 70–20% A from 3 to 3.5 min, 20% A from 3.5 to 3.6 min, 20–97% A from 3.6 to 3.7 min, and 97% A from 3.7 to 5 min. For the metabolic test, the gradient elution in full scan mode was set as follows: 97% A from 0 to 2 min, 97–70% A from 2 to 4 min, 70–20% A from 4 to 6 min, 20% A from 6 to 7 min, 20–97% A from 7 to 8 min, and 97% A from 8 to 10 min. The flow rate was 0.2 mL/min, with a temperature of 40 °C maintained and an injection volume of 5 μL. The QQQ-MS/MS analysis was conducted using a Thermo TSQ QUANTUM ACCESS MAX system equipped with an electrospray ionization (ESI) source. The spray voltages were set at 4.0 kV and 2.5 kV for positive and negative ion modes, respectively; capillary and vaporizer temperatures were 320 °C and 350 °C, respectively; sheath and aux gas pressures were 35 and 10 psi, respectively.
# A total of 36 Sprague-Dawley rats (18 male and 18 female) were randomly and equally assigned to 6 groups, with 3 male and 3 female rats in each group. Among these groups, 3 groups were administrated MASM intragastrically at a dosage of 60 mg/kg, while the remaining 3 groups received intraperitoneal administration of MASM at a dosage of 80 mg/kg. The rats in each group were euthanized at three different time points: 1 h, 2 h, and 24 h after administration. Subsequently, various tissues, including the heart, liver, spleen, lung, kidney, stomach, muscle, and brain, were promptly collected and weighed. These tissues were then homogenized using acetonitrile at a ratio of 1:10 and stored at a temperature of −80 °C until further analysis. During the analysis of the tissue sample, the protein was precipitated following the tissues: acetonitrile with a ratio of 1:3 and a volume of 5μL of the resulting supernatant were injected. The UHPLC-QQQ-MS/MS analysis method that was developed, underwent a comprehensive validation process, and the concentration of MASM in each tissue was determined using linear regression equations. Bar graphs were generated by applying Prism 8.0 (GraphPad Software Inc., San Diego, CA, USA).
# [2] = Metabolite profiling of MASM in rats by UHPLC-QQQ-MS/MS; format: in vivo, Sprague-Dawley rats; details: rat
# Procedure: The identification of the in vivo metabolites of MASM was conducted using UHPLC-QQQ-MS/MS combined with standard references and deuterium-labeled MASM. The findings are presented in Table 2, while the proposed primary metabolic pathway of MASM in rats is depicted in Figure 4. To provide a comprehensive understanding of the metabolite identification process, three representative metabolites of MASM are presented, with their identification relying on primary and secondary mass spectrometry data, standard references, and deuterium-labeled MASM. The remaining metabolites are detailed in Supplementary File S4. For instance, the identification of the metabolite, M1, as a demethylation product of MASM was accomplished through the utilization of MS, MS/MS data, and the standard reference. […] Moreover, the identification of M1 as the demethylation metabolite of MASM was accomplished using the standard reference synthesized in our laboratory. […] Secondly, the metabolite, M2, of MASM was identified as the dehydrogenation product of MASM through the utilization of MS and MS/MS data. […] Consequently, M2 was identified as a dehydrogenation metabolite of M1. Thirdly, through the utilization of MS, MS/MS data, and deuterium-labeled MASM, the metabolite, M8, of MASM was determined to be a dehydrogenation product of MASM. […] The major MS/MS fragment ions of M8 were found at m/z 111.92, 178.77, 150.16, and 135.85, which aligned with the characteristic cleavage pattern of matrine. Additionally, our lab synthesized deuterium-labeled MASM to further support our proposed structure. […] Consequently, M8 was identified as a dehydrogenation metabolite of MASM. The EIC, MS/MS spectrum of M8 and deuterium-labeled MASM are all depicted in Figure 5C.
# as §1
# Seventy Sprague-Dawley rats were fasted overnight before dosing, with free access to water. Subsequently, the rats were randomly and equally divided into 7 groups: the control groups received 3 different routes of administration: intravenous, intraperitoneal, and intragastric (NS, saline 1 mL/100 g); MASM intraperitoneal group (A, i.p. 80 mg/kg), MASM intragastrical group (B, i.g. 60 mg/kg), MASM intravenous group (C, i.v. 15 mg/kg), and DMASM intragastrical group (D, i.g. 60 mg/kg). It is important to note that the recommended clinical dose of matrine injection is 0.15 g, which is equivalent to a dosage of 15 mg/kg in rats. MASM was administered via tail vein injection at a dosage of 1 mL/100 g for intravenous dosing, while for intraperitoneal dosing, MASM was injected at the lower-right side of the abdomen of rats. […]
smiles,measurement,setting,value
"CNC1CC(=S)N2CC3CCCN4CCCC(C34)C2C1 [MASM, (6aS, 10S, 11aR, 11bR, 11cS)-10-methylaminododecahydro-3a, 7a-diaza-benzo (de) anthracene-8-thione]",tissues with concentration surpassing other organs at 1 h,[1]; following the initial hour,"liver, kidney, and intestine"
same,time at which Cmax in liver tissue was achieved,[1]; i.g. 60 mg/kg and i.p. 80 mg/kg,≤ 1 h
same,tissue with higher concentration than other organs at 2 h and 24 h,[1]; i.g. 60 mg/kg or i.p. 80 mg/kg,spleen and intestine
same,tissues of main distribution / higher accumulation,"[1]; i.g. 60 mg/kg or i.p. 80 mg/kg, 1, 2, 24 h","primarily distributed in the liver, kidney, and spleen tissues"
same,detection in tissues,"[1]; heart, liver, spleen, lung, kidney, brain, muscle, intestine, stomach","detected in all rat tissues including the brain; also recorded: detected in various tissues at 1, 2, and 24 h after administration"
same,number of in vivo metabolites identified,[2],10
same,primary metabolic reactions (phase I),[2],"oxidation, reduction, and hydroxylation"
